[APT] = modified deoxyadenosine dA^PT as named in the publication
Legend:
[1] = acidic hydrolysis (stability of the glycosidic bond); format: physicochemical; details: 80% acetic acid at 65° C. for 45 hr followed by concentrated ammonium hydroxide
From the text: In order to study the stability of the glycosidic bond of the dA^PT described above in acidic conditions, compared with that of dA, two oligonucleotides containing a single incorporation of either dA^PT (SEQ ID NO: 3) or the natural dA (SEQ ID NO: 6) were synthesized.

[2] = test system: 24-mer single-stranded target DNA sequence of SEQ ID NO: 4 (X=T); test: thermal denaturation (melting) studies of DNA duplexes followed by absorption spectroscopy; format: binding; details: duplex with SEQ ID NO: 4 (X=T); 1 μM each strand, 10 mM sodium phosphate pH 7, 150 mM NaCl, 1 mM EDTA; 260 nm
Protocol: Oligonucleotide concentrations were 1 μM (each strand) in a 10 mM sodium phosphate, pH 7, buffer containing 150 mM NaCl and 1 mM EDTA. Temperature was increased from 10° C. to 80° C. over 140 min. Melting curves were recorded at X, =260 nm.
The influence of dA replacement (one or two) by the pyrazolo[1,5-a]-1,3,5-triazine derivative (dA^PT) on duplex stability was investigated by thermal denaturation studies, followed by absorption spectroscopy, using DNA duplexes obtained by mixing the modified oligonucleotides of SEQ ID NOs. 1 and 2 with the 24-mer single-stranded target DNA sequence of SEQ ID NO: 4 (X=T). The natural deoxyadenosine was also incorporated in the same positions (SEQ ID NO: 5) for comparison (duplex obtained by hybridization of the oligonucleotides of SEQ ID NOs: 4+5).

[3] = test system: oligonucleotide of SEQ ID NO: 4 (X=T); test: CD spectra of DNA duplexes; format: physicochemical; details: 4 μM each strand, 10 mM sodium phosphate pH 7, 150 mM NaCl, 1 mM EDTA, 10° C., 220-300 nm; compared with unmodified duplex 4+5
From the text: CD spectra of the DNA duplexes obtained from the hybridization of the oligonucleotides of SEQ ID NOs: 4+1 and 4+2, containing one or two dA^PT, respectively, were compared to that of the parent unmodified duplex obtained by hybridization of the oligonucleotides of SEQ ID NOs: 4+5.

mouse leukemia cells = details: cited from earlier work
human platelet = details: cited from earlier work
HIV = details: cited from earlier work
HBV = details: cited from earlier work

## SEQ ID NO: 6: unmodified 5′d-(TTC CTC TTT CTA CCC TCT)3′ with natural dA (DNA TTCCTCTTTCTACCCTCT; DNA, backbone not given here)
[1]
  stability in acidic conditions (degradation): fully fragmented

## SEQ ID NO: 5: unmodified 5′d-(TAC CGC GTG CAA CCC TCT)3′ with natural deoxyadenosine (DNA TACCGCGTGCAACCCTCT; DNA, backbone not given here)
[2]
  melting temperature [Tm]: 69 °C

## SEQ ID NO: 2: 18-mer 5′d-(TA^PTC CGC GTG CAA^PT CCC TCT)3′ with two dA^PT incorporations (DNA TNCCGCGTGCANCCCTCT; listed as DNA, chemistry not fully specified)
[3]
  duplex form from CD spectra: still forms a B-form duplex
[2]
  melting temperature [Tm]: 69.3 °C

## SEQ ID NO: 1: 18-mer 5′d-(TAC CGC GTG CAA^PT CCC TCT)3′ with one dA^PT incorporation (DNA TACCGCGTGCATCCCTCT; DNA, [APT] at 12, backbone not given here)
[3]
  duplex form from CD spectra: still forms a B-form duplex
[2]
  melting temperature [Tm]: 69.6 °C

## Nc1ncnc2c([C@@H]3O[C@H](CO)[C@@H](O)[C@H]3O)cnn12 [compound 10, 4-amino-8-(β-D-ribofuranosyl)pyrazolo[1,5-a]-1,3,5-triazine]
Mouse leukemia cells; all systems tested
  activity compared with formycin: more active than formycin
Mouse leukemia cells
  inhibitory activity against various mouse leukemia cells: moderate inhibitory activity

## CNc1nc(C)nc2c([C@H]3C[C@H](OP(=O)(O)O)[C@@H](COP(=O)(O)O)O3)cnn12 [compound 2, 8-(2′-deoxy-β-D-ribofuranosyl)-2-methyl-4-(N-methylamino)pyrazolo[1,5-a]-1,3,5-triazine-3′,5′-bisphosphate]
Human platelet
  inhibition of ADP-induced human platelet aggregation: strongly inhibits
  inhibition of ADP-induced human platelet shape change: strongly inhibits

## Nc1ncnc2c([C@H]3O[C@@H](CO)[C@H](O)[C@@H]3O)cnn12 [4-amino-8-(β-L-ribofuranosyl)pyrazolo[1,5-a]-1,3,5-triazine]
HIV
  anti-HIV activity: no significant
HBV
  anti-HBV activity: no significant

## SEQ ID NO: 3: 5′d-(TTC CTC TTT CTA^PT CCC TCT)3′, a sole dA^PT and no other purine (DNA TTCCTCTTTCTNCCCTCT; listed as DNA, chemistry not fully specified)
[1]
  stability in acidic conditions (degradation): not degraded

Source: patent US9994604B2, “Pyrazolotriazolyl nucleoside analogues and oligonucleotides comprising them” (Bio-Lab Ltd., priority 2012, dated 2018)
